{"source": "patent US8658383B2", "about": "“Sweet taste receptor-expressing construct, cell body expressing the same, and utilization thereof” (T. Hasegawa Co., Ltd., priority 2009, dated 2014)", "key": {"[1]": {"molecular_target": "T1, human sweet taste receptor (hT1R2+hT1R3) (Homo sapiens, UniProt Q7RTX0+Q8TE23)", "T1 sequence (Q8TE23 20-839)": "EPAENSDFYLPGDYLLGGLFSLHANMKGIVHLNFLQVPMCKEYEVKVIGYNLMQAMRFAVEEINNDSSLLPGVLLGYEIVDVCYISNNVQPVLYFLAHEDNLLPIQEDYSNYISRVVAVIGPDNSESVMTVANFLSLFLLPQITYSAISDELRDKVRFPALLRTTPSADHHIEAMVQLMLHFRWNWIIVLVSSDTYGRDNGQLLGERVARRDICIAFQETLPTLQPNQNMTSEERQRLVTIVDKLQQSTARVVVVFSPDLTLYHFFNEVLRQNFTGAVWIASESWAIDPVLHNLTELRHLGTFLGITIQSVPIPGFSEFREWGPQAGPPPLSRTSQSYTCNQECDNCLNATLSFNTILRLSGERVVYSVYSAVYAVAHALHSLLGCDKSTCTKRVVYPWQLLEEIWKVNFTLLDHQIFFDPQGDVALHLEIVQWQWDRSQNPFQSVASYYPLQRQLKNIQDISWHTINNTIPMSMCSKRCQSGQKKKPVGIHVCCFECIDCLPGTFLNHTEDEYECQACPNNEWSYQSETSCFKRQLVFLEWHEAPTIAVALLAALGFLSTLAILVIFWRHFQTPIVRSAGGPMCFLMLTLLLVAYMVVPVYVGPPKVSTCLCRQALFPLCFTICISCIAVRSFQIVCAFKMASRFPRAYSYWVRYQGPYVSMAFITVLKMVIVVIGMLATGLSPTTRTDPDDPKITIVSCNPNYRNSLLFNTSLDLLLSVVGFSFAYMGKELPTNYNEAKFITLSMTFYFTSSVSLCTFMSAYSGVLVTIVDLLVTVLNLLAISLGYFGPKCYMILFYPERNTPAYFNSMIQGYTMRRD", "T1 sequence (Q7RTX0 21-852)": "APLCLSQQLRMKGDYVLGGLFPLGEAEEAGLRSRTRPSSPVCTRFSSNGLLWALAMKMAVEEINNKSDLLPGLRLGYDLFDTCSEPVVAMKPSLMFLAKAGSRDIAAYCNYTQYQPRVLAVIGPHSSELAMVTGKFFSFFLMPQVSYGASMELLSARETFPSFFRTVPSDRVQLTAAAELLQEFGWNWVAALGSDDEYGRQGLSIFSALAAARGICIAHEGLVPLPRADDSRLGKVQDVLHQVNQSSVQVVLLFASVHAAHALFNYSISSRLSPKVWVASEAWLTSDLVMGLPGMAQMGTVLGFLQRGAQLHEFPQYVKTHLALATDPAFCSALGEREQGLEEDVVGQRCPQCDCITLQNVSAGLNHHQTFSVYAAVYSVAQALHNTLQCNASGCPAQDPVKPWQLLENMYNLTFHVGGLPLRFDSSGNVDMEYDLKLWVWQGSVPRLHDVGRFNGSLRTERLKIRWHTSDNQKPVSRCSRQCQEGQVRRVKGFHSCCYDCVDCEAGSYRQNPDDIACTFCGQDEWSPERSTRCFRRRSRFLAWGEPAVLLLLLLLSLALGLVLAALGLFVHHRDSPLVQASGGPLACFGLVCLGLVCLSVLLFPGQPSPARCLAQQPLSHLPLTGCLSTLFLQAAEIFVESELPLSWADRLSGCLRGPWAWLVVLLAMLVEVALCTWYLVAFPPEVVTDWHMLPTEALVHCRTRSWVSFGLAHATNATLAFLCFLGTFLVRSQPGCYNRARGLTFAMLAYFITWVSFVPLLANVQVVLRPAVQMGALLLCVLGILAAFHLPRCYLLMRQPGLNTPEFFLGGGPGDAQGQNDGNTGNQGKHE", "assay": "Automated fluorescent calcium imaging (Fluo-4 AM, FlexStation 3) of cultured cell strain (A)", "format": "cell-based", "design": "The sweet taste receptor subunits T1R2 and T1R3 include an entire part of each subunit", "experimental": "Automated fluorescent imaging using FlexStation 3 (Molecular Devices) can be performed, for example, according to the following procedure.\nFirst, cells are suspended in a low glucose ([…]) DMEM medium from which hygromycin B has been removed, and each 70 to 80 thousands of cells are seeded on each well of a 96-well plate (Corning, CellBIND Surface).\nThen, after cultured at 37° C. for 24 hours, a medium is removed and replaced with a suitable amount of a HEPES (2-[4-(2-hydroxyethyl)-1-piperazinyl]ethanesulfonic acid) buffer, and a HEPES buffer containing a fluorescent calcium indicator (Fluo-4 AM attached to Molecular Devices, FLIPR Ca 4 Assay Kit) is further added. In order to facilitate transfer into cells, a fat-soluble acetoxymethyl group has been introduced into the fluorescent indicator Fluo-4 (excitation wavelength: 495 nm, fluorescent wavelength: 518 nm), and when it is added to a medium, it is easily taken into cells, and is hydrolyzed with an esterase in cells. Hydrolyzed Fluo-4 becomes difficult to be permeated through a cell membrane, and is diffused into cells to form a complex with calcium, emitting intense fluorescence. In a 96-well plate for fluorescent observation, there are a plastic bottom and a film bottom. Since a plate of the plastic bottom is satisfactory in adherability and growth of cells, it is used at a simultaneous assay using a multiplate reader for observing an entire well. However, since a plate of this plastic bottom is bad in transmission property of a UV wavelength, and inhibits transmission of excited light of Fura-2, Fluo-4 is used.\nThen, after incubated at 27 to 37° C. for 30 to 60 minutes, by adding thereto a sweet taste substance at a particular concentration or a solution of a sweet taste substance and a substance to be tested, taste stimulation is performed at 27 to 37° C.\nA physiological response of the cultured cell strain (A) to sucrose stimulation was analyzed by automated fluorescent imaging.\nThe cultured cell strain (A) prepared in Example 4 was trypsinized, and suspended in the DMEM medium, a cell density was measured, and each about 80 thousand cells were seeded on each well of a 96-well plate (Corning, CellBIND Surface).\nAfter cultured at 37° C. for 24 hours, the medium was removed and replaced with 50 μl of a HEPES buffer, and 50 μl of a HEPES buffer containing a fluorescent calcium indicator (Fluo-4 AM attached to Molecular Devices, FLIPR Ca 4 Assay Kit) was further added. Then, this was incubated at 27° C. for 45 minutes to prepare cells to be subjected to automated fluorescent imaging.\nThen, to the cells was added a HEPES buffer containing sucrose, so that a final concentration of sucrose became a concentration described in Table 1, and sucrose stimulation was performed at 27° C.\nThe vertical axis of FIG. 15 is a maximum of change (AF) in a fluorescent intensity between immediately after stimulation and 100 seconds after stimulation, that is, a response intensity of cells, and the horizontal axis indicates a sucrose concentration (mM) expressed by logarithm.\nA physiological response of the cultured cell strain (A) to D-phenylalanine stimulation was analyzed by automated fluorescent imaging."}, "[2]": {"molecular_target": "T1, human sweet taste receptor (hT1R2+hT1R3)", "assay": "Automated fluorescent calcium imaging (Fluo-4 AM, FlexStation 3) of cultured cell strain (A)", "format": "cell-based", "design": "The sweet taste receptor subunits T1R2 and T1R3 include an entire part of each subunit", "remark": "listed apart in the source"}, "[3]": {"molecular_target": "T1, human sweet taste receptor (hT1R2+hT1R3)", "assay": "Fluorescent microscope calcium imaging (Fura-2 AM) of cultured cell strains (A) to (C)", "settings": "cultured cell strain (A); Sucrose in a range of 20 mM to 1 M; FIG. 13", "quoted_text": "Fluorescent calcium imaging using a fluorescent microscope can be performed according to the following procedure.\nFirst, cells are suspended in a low glucose (1,000 mg/ml) DMEM medium, from which hygromycin B has been removed, and each 40 to 80 thousands cells are seeded on each well of a 96-well plate (Greiner, Lumox).\nThen, after cultured at 37° C. for 24 to 48 hours, a medium is removed and is replaced with a suitable amount of a HEPES buffer, and a HEPES buffer containing a fluorescent calcium indicator (Fura-2 AM) is further added.\nAfter incubated at 27 to 37° C. for 30 to 60 minutes, an extracellular fluorescent indicator is removed, and this is finally replaced with a suitable amount of a HEPES buffer, and is allowed to stand at room temperature for 10 to 20 minutes. By adding thereto a sweet taste substance at a particular concentration or a solution of a sweet taste substance and a substance to be tested, taste stimulation is performed at room temperature. In the fluorescent indicator Fura-2 (excitation wavelength: 340 nm/380 nm, fluorescent wavelength: 510 nm), a fluorescent intensity of excitation at 340 nm is increased, and a fluorescent intensity of excitation at 380 nm is reduced, when a calcium ion concentration is increased.\nCells loaded with Fura-2 AM were excited at 340 nm and 380 nm, and a fluorescent image observed at 510 nm was taken using a fluorescent microscope and a CCD camera. While the image was taken, Aspartame at a final concentration of 10 mM was administered to cells and, thereafter, the image was continuously taken. From the field of the taken image, 100 cells were randomly selected, and the response cell number was counted.\nCells loaded with Fura-2 AM were excited at 340 nm and 380 nm, and a fluorescent image observed at 510 nm was taken using a fluorescent microscope and a CCD camera. While the image was taken, Aspartame at each final concentration of 0.1 mM, 0.5 mM, 1 mM, 2 mM and 5 mM was administered to cells and then the image was continuously taken.\nCells loaded with Fura-2 AM were excited at 340 nm and 380 nm, and a fluorescent image observed at 510 nm was taken by using a fluorescent microscope and a CCD camera. While the image was taken, Sucrose at each final concentration of 20 mM, 50 mM, 100 mM, 200 mM, 500 mM and 1 M was administered to cells and then the image was continuously taken.\nCells loaded with Fura-2 AM were excited at 340 nm and 380 nm, and a fluorescent image observed at 510 nm was taken by using a fluorescent microscope and a CCD camera. While the image was taken, sucrose at final concentration of 500 mM was administered to cells and then the image was continuously taken."}}}
{"molecule": "N[C@H](Cc1ccccc1)C(=O)O", "note": "[D-phenylalanine]", "values": [{"measurement": "Change amount of fluorescent intensity (ΔF)", "setting": "[1]; D-phenylalanine 1.5 mM, Average ± S.E., n = 2", "result": "4.0 ± 0.8"}, {"measurement": "Change amount of fluorescent intensity (ΔF)", "setting": "[1]; D-phenylalanine 2.2 mM, Average ± S.E., n = 2", "result": "4.8 ± 0.6"}, {"measurement": "Change amount of fluorescent intensity (ΔF)", "setting": "[1]; D-phenylalanine 3.3 mM, Average ± S.E., n = 2", "result": "4.5 ± 0.6"}, {"measurement": "Change amount of fluorescent intensity (ΔF)", "setting": "[1]; D-phenylalanine 4.9 mM, Average ± S.E., n = 2", "result": "5.4 ± 0.3"}, {"measurement": "Change amount of fluorescent intensity (ΔF)", "setting": "[1]; D-phenylalanine 7.4 mM, Average ± S.E., n = 2", "result": "8.1 ± 0.7"}, {"measurement": "Change amount of fluorescent intensity (ΔF)", "setting": "[1]; D-phenylalanine 11.1 mM, Average ± S.E., n = 2", "result": "12.1 ± 0.2"}, {"measurement": "Change amount of fluorescent intensity (ΔF)", "setting": "[1]; D-phenylalanine 16.7 mM, Average ± S.E., n = 2", "result": "18.2 ± 0.9"}, {"measurement": "Change amount of fluorescent intensity (ΔF)", "setting": "[1]; D-phenylalanine 25 mM, Average ± S.E., n = 2", "result": "25.2 ± 1.2"}]}
{"molecule": "COc1ccc(CCC(=O)c2c(O)cc(O[C@@H]3O[C@H](CO)[C@@H](O)[C@H](O)[C@H]3O[C@@H]3O[C@@H](C)[C@H](O)[C@@H](O)[C@H]3O)cc2O)cc1O", "note": "[NHDC, neohesperidin dihydrochalcone]", "values": [{"measurement": "Change amount of fluorescent intensity (ΔF)", "setting": "[1]; NHDC 0.003 mM", "result": 5.8}, {"measurement": "Change amount of fluorescent intensity (ΔF)", "setting": "[1]; NHDC 0.01 mM", "result": 11.2}, {"measurement": "Change amount of fluorescent intensity (ΔF)", "setting": "[2]; NHDC 0.03 mM", "result": 9.6}, {"measurement": "Change amount of fluorescent intensity (ΔF)", "setting": "[2]; NHDC 0.1 mM", "result": 20.9}, {"measurement": "Change amount of fluorescent intensity (ΔF)", "setting": "[2]; NHDC 0.3 mM", "result": 26.7}, {"measurement": "Change amount of fluorescent intensity (ΔF)", "setting": "[2]; NHDC 1 mM", "result": 41.8}, {"measurement": "Change amount of fluorescent intensity (ΔF)", "setting": "[2]; NHDC 3 mM", "result": 66.8}, {"measurement": "Change amount of fluorescent intensity (ΔF)", "setting": "[2]; NHDC 10 mM", "result": 78.6}]}
{"molecule": "OC[C@H]1O[C@@](CO)(O[C@H]2O[C@H](CO)[C@@H](O)[C@H](O)[C@H]2O)[C@@H](O)[C@@H]1O", "note": "[Sucrose, sucrose]", "values": [{"measurement": "Change amount of fluorescent intensity (ΔF)", "setting": "[1]; sucrose 3.1 mM, Average ± S.E., n = 6", "result": "10.8 ± 2.0"}, {"measurement": "Change amount of fluorescent intensity (ΔF)", "setting": "[1]; sucrose 6.3 mM, Average ± S.E., n = 6", "result": "13.8 ± 2.9"}, {"measurement": "Change amount of fluorescent intensity (ΔF)", "setting": "[1]; sucrose 12.5 mM, Average ± S.E., n = 6", "result": "14.9 ± 2.7"}, {"measurement": "Change amount of fluorescent intensity (ΔF)", "setting": "[1]; sucrose 25 mM, Average ± S.E., n = 6", "result": "17.0 ± 2.6"}, {"measurement": "Change amount of fluorescent intensity (ΔF)", "setting": "[1]; sucrose 50 mM, Average ± S.E., n = 6", "result": "29.2 ± 2.3"}, {"measurement": "Change amount of fluorescent intensity (ΔF)", "setting": "[1]; sucrose 100 mM, Average ± S.E., n = 6", "result": "40.4 ± 2.5"}, {"measurement": "Change amount of fluorescent intensity (ΔF)", "setting": "[1]; sucrose 200 mM, Average ± S.E., n = 6", "result": "35.4 ± 3.2"}, {"measurement": "sweet taste response (fluorescent images)", "setting": "[3]", "result": "concentration-dependent sweet taste response was observed"}]}
{"molecule": "O=C1NS(=O)(=O)c2ccccc21", "note": "[saccharin]", "values": [{"measurement": "Change amount of fluorescent intensity (ΔF)", "setting": "[1]; saccharin 0.04 mM, Average ± S.E., n = 2", "result": "4.0 ± 0.8"}, {"measurement": "Change amount of fluorescent intensity (ΔF)", "setting": "[1]; saccharin 0.08 mM, Average ± S.E., n = 2", "result": "8.0 ± 0.6"}, {"measurement": "Change amount of fluorescent intensity (ΔF)", "setting": "[1]; saccharin 0.16 mM, Average ± S.E., n = 2", "result": "11.1 ± 1.3"}, {"measurement": "Change amount of fluorescent intensity (ΔF)", "setting": "[1]; saccharin 0.31 mM, Average ± S.E., n = 2", "result": "18.7 ± 2.4"}, {"measurement": "Change amount of fluorescent intensity (ΔF)", "setting": "[1]; saccharin 0.63 mM, Average ± S.E., n = 2", "result": "26.1 ± 4.0"}, {"measurement": "Change amount of fluorescent intensity (ΔF)", "setting": "[1]; saccharin 1.25 mM, Average ± S.E., n = 2", "result": "25.7 ± 1.1"}, {"measurement": "Change amount of fluorescent intensity (ΔF)", "setting": "[1]; saccharin 2.50 mM, Average ± S.E., n = 2", "result": "25.6 ± 0.2"}, {"measurement": "Change amount of fluorescent intensity (ΔF)", "setting": "[1]; saccharin 5 mM, Average ± S.E., n = 2", "result": "21.8 ± 1.2"}]}
